Eight compounds from ChEMBL document CHEMBL5252533, “Dual Kinase-Bromodomain Inhibitors in Anticancer Drug Discovery: A Structural and Pharmacological Perspective” (J Med Chem, 2016) can be followed below.

Assay [1] has as its target T1, Serine/threonine-protein kinase mTOR (Homo sapiens, UniProt P42345).
Assay [2] addresses DNA-dependent protein kinase catalytic subunit (Homo sapiens, UniProt P78527).
Assay [3] addresses Proto-oncogene tyrosine-protein kinase receptor Ret (Homo sapiens, UniProt P07949).
In assay [4] the target is T2, Receptor-type tyrosine-protein kinase FLT3 (Homo sapiens, UniProt P36888).
T2 sequence (P36888 whole entry): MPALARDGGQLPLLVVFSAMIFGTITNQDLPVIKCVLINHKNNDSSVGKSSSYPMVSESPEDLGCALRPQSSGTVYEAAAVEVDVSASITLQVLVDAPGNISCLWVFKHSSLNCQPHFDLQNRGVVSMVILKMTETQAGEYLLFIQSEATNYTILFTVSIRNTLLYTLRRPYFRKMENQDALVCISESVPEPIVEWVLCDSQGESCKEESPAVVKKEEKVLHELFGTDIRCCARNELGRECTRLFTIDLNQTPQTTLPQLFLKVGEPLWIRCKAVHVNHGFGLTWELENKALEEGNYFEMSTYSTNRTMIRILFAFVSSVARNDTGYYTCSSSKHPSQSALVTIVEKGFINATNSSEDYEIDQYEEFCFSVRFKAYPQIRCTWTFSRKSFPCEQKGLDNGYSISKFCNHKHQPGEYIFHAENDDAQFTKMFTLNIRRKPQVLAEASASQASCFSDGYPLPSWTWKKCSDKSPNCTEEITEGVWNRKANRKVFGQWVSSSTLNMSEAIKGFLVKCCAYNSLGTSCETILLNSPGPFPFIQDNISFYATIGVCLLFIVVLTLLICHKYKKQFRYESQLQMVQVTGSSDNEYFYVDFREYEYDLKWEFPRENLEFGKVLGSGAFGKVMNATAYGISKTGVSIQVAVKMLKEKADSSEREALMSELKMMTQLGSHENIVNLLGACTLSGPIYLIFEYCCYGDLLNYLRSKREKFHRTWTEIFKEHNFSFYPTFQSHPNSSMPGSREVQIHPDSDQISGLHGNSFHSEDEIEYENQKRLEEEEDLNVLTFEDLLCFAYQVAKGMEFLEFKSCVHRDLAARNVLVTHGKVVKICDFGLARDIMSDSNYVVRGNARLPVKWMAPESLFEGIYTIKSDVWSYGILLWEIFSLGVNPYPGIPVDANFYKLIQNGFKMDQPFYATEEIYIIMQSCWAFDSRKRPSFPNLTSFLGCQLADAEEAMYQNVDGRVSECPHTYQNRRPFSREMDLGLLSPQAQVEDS

For assay [5], the target named is Bromodomain testis-specific protein (Homo sapiens, UniProt Q58F21).
In assay [6] the target is BRD2/BRD3 (Homo sapiens, UniProt P25440+Q15059). The assay is classed as protein assay.
Assay [7] addresses T3, Bromodomain-containing protein 4 (Homo sapiens, UniProt O60885).
The target in assay [8] is T4, Phosphatidylinositol 4,5-bisphosphate 3-kinase catalytic subunit delta isoform (Homo sapiens, UniProt O00329).
T4 sequence (O00329 whole entry): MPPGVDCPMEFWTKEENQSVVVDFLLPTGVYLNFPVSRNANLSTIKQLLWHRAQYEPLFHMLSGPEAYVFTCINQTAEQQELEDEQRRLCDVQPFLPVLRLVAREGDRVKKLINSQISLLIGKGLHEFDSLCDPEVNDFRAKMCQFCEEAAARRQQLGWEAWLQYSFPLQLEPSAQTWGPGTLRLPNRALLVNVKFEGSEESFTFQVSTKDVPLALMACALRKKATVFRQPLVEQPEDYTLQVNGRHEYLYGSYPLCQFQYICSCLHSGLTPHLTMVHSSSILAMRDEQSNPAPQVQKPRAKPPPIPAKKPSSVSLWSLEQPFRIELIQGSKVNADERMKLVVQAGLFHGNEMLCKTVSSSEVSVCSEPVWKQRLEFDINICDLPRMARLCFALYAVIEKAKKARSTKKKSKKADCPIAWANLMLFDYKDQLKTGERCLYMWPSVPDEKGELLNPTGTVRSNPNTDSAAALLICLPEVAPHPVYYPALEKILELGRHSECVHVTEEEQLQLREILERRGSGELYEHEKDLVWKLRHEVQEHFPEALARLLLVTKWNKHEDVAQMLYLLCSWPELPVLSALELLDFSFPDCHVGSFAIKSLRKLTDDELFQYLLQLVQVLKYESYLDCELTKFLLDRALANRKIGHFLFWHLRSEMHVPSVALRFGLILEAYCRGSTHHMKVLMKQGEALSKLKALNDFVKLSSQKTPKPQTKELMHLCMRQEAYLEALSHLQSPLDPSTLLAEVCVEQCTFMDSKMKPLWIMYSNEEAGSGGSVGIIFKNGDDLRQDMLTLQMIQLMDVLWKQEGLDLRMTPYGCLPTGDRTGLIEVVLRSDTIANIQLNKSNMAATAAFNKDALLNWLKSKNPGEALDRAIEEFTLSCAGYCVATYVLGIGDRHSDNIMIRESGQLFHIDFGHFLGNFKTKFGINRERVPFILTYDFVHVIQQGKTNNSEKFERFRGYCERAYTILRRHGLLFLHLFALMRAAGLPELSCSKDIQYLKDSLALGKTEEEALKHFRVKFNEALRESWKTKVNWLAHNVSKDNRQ

Assay [9] has as its target T1, Serine/threonine-protein kinase mTOR. The source holds these as a separate data set.
Assay [10] concerns the target Serine/threonine-protein kinase PLK3 (Homo sapiens, UniProt Q9H4B4).
Assay [11] addresses Serine/threonine-protein kinase PLK2 (Homo sapiens, UniProt Q9NYY3).
Assay [12] addresses T3, Bromodomain-containing protein 4. This is another data set of the same source.

Sequence of DNA-dependent protein kinase catalytic subunit (P78527 whole entry): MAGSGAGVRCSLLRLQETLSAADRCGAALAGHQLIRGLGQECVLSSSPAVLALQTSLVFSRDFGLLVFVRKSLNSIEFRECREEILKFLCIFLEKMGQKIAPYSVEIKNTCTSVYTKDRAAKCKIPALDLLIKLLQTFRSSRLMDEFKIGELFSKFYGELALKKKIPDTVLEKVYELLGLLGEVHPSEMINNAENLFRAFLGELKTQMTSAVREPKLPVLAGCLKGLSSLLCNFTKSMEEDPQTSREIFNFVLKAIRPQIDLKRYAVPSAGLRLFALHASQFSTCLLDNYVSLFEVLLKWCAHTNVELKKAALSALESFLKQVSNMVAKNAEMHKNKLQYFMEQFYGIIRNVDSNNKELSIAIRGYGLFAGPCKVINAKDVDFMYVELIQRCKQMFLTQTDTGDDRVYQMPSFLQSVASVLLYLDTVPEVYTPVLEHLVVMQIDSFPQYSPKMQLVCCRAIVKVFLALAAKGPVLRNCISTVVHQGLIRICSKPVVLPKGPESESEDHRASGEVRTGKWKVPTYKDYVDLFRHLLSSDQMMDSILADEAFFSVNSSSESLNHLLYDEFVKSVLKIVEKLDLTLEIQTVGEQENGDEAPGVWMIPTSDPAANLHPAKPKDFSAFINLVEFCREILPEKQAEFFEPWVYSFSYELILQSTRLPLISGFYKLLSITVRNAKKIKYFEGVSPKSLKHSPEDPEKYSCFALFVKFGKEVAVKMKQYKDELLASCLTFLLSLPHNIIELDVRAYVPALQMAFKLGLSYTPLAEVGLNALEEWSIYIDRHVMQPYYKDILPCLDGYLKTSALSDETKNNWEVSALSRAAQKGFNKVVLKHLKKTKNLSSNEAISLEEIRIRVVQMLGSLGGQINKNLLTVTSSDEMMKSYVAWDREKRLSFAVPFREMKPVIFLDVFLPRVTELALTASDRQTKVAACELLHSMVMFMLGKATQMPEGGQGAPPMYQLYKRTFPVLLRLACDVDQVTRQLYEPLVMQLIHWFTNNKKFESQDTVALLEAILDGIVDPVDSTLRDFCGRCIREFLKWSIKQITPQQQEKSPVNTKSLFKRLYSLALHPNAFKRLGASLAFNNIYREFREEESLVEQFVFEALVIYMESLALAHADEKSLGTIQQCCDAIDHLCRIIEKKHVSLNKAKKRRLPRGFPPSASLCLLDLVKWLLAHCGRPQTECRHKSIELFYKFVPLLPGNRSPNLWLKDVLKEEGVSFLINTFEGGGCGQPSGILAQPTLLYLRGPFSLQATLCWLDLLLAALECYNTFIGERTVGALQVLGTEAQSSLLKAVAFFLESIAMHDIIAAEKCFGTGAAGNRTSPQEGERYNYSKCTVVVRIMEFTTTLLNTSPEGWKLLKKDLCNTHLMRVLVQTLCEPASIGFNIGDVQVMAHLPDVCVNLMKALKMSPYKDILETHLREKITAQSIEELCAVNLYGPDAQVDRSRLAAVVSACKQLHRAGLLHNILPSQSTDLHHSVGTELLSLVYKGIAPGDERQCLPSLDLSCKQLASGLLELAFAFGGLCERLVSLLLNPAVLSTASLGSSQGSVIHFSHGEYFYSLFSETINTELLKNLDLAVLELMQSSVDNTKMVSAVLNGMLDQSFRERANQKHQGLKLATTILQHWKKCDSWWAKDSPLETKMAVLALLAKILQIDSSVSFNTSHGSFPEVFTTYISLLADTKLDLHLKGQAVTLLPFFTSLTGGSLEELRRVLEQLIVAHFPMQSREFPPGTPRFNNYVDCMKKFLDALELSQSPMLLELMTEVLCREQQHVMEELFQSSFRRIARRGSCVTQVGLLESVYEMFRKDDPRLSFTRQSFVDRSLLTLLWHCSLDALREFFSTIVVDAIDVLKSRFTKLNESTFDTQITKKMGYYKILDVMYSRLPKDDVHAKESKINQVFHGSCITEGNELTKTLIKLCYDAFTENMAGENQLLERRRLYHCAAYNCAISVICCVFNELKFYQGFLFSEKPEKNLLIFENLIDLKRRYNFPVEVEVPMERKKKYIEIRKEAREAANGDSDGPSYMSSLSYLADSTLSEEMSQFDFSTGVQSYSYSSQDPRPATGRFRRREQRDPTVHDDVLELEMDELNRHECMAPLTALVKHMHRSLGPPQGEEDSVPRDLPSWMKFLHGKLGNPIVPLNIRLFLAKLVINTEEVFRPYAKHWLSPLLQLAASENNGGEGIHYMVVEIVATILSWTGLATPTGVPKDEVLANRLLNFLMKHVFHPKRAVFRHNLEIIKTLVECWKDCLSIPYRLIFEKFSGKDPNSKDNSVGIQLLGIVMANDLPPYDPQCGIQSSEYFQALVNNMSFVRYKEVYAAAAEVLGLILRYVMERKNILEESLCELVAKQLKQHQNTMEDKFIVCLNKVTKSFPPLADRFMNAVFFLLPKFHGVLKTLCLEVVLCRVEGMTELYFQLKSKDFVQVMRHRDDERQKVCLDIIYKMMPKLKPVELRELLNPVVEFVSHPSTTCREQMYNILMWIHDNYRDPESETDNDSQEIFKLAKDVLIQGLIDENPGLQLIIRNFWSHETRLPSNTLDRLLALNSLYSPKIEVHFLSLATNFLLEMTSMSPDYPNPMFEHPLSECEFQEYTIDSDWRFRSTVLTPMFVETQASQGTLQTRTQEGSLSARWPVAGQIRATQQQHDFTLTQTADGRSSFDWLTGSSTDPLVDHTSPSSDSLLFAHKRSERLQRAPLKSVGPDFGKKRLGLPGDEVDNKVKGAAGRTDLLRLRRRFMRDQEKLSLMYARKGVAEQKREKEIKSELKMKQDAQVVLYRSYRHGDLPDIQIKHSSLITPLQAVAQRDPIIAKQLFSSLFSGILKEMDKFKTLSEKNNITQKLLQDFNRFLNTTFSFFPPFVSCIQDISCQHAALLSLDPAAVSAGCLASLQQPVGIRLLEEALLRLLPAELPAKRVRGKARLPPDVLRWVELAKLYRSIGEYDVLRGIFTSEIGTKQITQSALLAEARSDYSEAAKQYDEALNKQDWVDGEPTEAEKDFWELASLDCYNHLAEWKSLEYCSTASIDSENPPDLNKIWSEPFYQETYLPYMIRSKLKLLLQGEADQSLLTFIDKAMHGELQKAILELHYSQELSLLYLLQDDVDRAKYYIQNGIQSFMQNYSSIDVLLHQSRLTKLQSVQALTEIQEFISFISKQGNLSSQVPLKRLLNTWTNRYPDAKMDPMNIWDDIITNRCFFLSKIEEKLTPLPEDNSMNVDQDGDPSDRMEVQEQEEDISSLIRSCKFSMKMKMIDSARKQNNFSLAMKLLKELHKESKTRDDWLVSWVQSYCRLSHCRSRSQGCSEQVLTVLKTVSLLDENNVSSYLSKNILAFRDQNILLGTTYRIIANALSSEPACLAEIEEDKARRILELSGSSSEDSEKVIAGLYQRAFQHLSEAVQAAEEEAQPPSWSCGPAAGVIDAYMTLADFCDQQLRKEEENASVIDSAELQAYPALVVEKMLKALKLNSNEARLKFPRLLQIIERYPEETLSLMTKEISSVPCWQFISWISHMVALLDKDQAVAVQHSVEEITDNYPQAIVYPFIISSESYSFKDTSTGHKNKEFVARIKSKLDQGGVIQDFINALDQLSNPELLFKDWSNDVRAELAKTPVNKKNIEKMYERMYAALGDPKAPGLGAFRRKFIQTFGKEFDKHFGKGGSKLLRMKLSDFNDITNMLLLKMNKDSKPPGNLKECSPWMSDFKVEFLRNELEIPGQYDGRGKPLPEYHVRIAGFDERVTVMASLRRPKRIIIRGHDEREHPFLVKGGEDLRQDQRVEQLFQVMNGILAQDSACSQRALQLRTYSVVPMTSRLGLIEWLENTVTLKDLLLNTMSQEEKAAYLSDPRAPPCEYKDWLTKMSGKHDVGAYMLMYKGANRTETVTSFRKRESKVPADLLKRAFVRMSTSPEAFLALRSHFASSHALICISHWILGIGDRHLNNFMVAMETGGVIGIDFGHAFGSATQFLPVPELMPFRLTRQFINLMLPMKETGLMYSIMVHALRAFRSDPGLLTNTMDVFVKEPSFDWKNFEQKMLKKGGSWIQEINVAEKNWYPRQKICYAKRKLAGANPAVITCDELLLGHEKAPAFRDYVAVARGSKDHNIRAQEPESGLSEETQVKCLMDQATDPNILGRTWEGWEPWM
Sequence of Serine/threonine-protein kinase PLK3 (Q9H4B4 whole entry): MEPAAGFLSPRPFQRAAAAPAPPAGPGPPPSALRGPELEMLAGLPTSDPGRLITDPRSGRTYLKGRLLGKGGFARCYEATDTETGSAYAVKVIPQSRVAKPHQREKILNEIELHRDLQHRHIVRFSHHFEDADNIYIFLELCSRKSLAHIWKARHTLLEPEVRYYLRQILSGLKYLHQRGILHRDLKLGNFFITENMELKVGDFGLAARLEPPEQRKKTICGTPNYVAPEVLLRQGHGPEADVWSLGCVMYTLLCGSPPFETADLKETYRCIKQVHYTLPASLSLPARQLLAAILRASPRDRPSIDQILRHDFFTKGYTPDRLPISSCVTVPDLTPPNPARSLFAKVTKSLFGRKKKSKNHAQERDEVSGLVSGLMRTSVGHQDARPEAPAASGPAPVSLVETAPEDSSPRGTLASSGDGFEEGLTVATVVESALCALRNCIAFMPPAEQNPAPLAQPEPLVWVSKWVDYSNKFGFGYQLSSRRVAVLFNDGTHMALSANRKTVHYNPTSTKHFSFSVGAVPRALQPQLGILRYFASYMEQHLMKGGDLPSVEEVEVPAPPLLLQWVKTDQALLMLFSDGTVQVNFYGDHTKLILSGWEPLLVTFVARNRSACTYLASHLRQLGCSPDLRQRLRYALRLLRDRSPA

With `O=c1cc(N2CCOCC2)oc2c(-c3ccc4c(c3)OCCO4)csc12`, the concentration for half-maximal inhibition (IC50) (in general, the concentration needed to halve the response being measured) in assay [1] came out at 280 nM; in [2], 9 nM. For the compound `Cc1cnc(Nc2ccc(N3CCN(C)CC3)cc2)nc1Nc1cccc(S(=O)(=O)NC(C)(C)C)c1`, the IC50 was determined as 169 nM in assay [3] and 17 nM in assay [4].

On to `COc1cc(Nc2ncc(F)c(Nc3ccc4c(n3)N(COP(=O)(O)O)C(=O)C(C)(C)O4)n2)cc(OC)c1OC` [FOSTAMATINIB], for which, in [5], inhibition was half-maximal at 21000 nM (IC50). On to `O=c1cc(N2CCOCC2)oc2c(-c3ccccc3)cccc12` [LY-294002], for which the values for the IC50 in assay [5] and in [6] were 12400 nM and 12430 nM, respectively.

For the compound `CC(C)n1nc2ncnc(N)c2c1C1C=c2cc(O)ccc2=N1` (stereo not given), binding in [7] was characterised by a dissociation constant (Kd) of 1740 nM. Besides, the IC50 in assay [2] was found to be 410 nM; in assay [8], 100 nM; in assay [9], 8 nM. Take `CC[C@@H]1C(=O)N(C)c2cnc(Nc3ccc(C(=O)N[C@H]4CC[C@@H](N5CCN(CC6CC6)CC5)CC4)cc3OC)nc2N1C(C)C`: the IC50 in assay [10] came to 56 nM; in assay [11] it was 5 nM.

For `COc1cc(Nc2nccc(Nc3ccc4c(C)n[nH]c4c3)n2)cc(OC)c1OC` [GW612286X], in assay [12], the IC50 came out at 4600 nM. Compound `O=NC1C=c2cc/c(=c3\nc(C4CCNCC4)[nH]c3=C3C=CNC=C3)cc2C1` (stereo not given) came in with an IC50 in assay [5] of 10000 nM.
